Where “and” joins values, the source holds several entries; their conditions need not be identical. Identical values can stand only once.
Assays:
[1] = parameters: method as in SPECS; conditions: values provided by vendor; ref SPECS; cited from earlier work
[2] = parameters: method as in SPECS; conditions: values provided by vendor; ref SPECS; cited from earlier work; remark: listed apart in the source
[3] = cell cytotoxicity assay (MTT); format: cell-based; conditions: human, 50% cytotoxicity concentration, Huh7 (NS3-5B) cells
Experimental: To determine if the compounds were cytotoxic to Huh7 (NS3-5B) cells, the cells (1 × 10^4 cells per well) were plated on 96-well microtiter plates and were incubated at 37 °C in 5% CO2 overnight. Various concentrations of the compounds were added to the wells. 48 h later, 10 μL of MTT (M2128, Sigma, Shanghai, China) were added to each well and incubated at 37 °C for 4 h. One-hundred microliters of MTT buffer (10% SDS + 5% isobutyl alcohol + 10 mmol/L HCl) were added overnight, and the optical density readings were measured by colorimeter at 580 and 680 nm.

[4] = tested on: HCV replicon, Huh7 (NS3-5B) cells; experiment: cell-based HCV replicon assay (luciferase); parameters: species or system Hepatitis C virus genotype 1b; conditions: for IC50: genotype 1b, Huh7 (NS3-5B) cells, 48 h incubation, luciferase readout; for SI (selectivity index): ratio of CC50/IC50
Experimental: Huh7 (NS3-5B) cells correspond to a stable cell line transfected with HCV NS3-5B genotype 1b. The cells were seeded (1 × 10^4 cells per well) in Dulbecco’s Modified Eagle Medium (DMEM) supplemented with 10% fetal bovine serum, 2 mM glutamine, penicillin (100 IU/mL)/streptomycin (100 μg/mL), 1× nonessential amino acids and 0.5 mg/mL G418 in 96-well plates overnight. Compounds were diluted and added to each well. Each concentration was measured in duplicate. After 48 h of incubation, 100 μL of Steady-Glo Luciferase buffer (E2550, Promega, Beijing, China) was added to each well and shaken for 10 min, and the results were read on plate reader (ENVISION, PerkinElmer, Shanghai, China). The IC50 values were calculated by fitting with the parameter of the Hill equation.

HCV NS3/4A protease = biological target: T1, HCV NS3/4A protease (Hepatitis C virus genotype 1b, UniProt O92972); experiment: HCV NS3/4A protease assay (SensoLyte 490 kit); conditions: inhibition percentage at 50 μM in biochemical protease assay, mean of duplicate wells
T1 construct: HCV NS3/4A protease diluent (10 ng, 10 μL); purchased AnaSpec 71126 (assay kit)
Experimental: A SensoLyte® 490 HCV Protease Assay Kit (AnaSpec, Cat#71126) was used for screening HCV protease inhibitors. The test compounds (100 nL of 200× final concentration, prepared by the ECHO liquid handler (ECHO, Labcyte, CA, USA)) and HCV NS3/4A protease diluent (10 ng, 10 μL) were added into a 384-well black microplate (Corning #3573). The known HCV NS3/4A protease inhibitor (Ac-DEDif-EchaC, AnaSpec Cat#25346) was used as a control. The plate was incubated at room temperature for enzymatic reaction for 10 min. In the meantime, the HCV NS3/4A protease substrate solution was also incubated at the same temperature. The reaction was initiated by adding 10 μL of HCV NS3/4A protease substrate. The reagents were completely mixed by shaking the plate gently for 30–60 s. For the kinetic reading, the fluorescence intensity at Ex/Em = 340 nm/490 nm was immediately measured, and the data was recorded every 2 min for 30 min.

T1 sequence (O92972 1658-1711): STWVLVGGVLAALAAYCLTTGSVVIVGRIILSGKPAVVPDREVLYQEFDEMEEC
T1 sequence (O92972 1027-1657): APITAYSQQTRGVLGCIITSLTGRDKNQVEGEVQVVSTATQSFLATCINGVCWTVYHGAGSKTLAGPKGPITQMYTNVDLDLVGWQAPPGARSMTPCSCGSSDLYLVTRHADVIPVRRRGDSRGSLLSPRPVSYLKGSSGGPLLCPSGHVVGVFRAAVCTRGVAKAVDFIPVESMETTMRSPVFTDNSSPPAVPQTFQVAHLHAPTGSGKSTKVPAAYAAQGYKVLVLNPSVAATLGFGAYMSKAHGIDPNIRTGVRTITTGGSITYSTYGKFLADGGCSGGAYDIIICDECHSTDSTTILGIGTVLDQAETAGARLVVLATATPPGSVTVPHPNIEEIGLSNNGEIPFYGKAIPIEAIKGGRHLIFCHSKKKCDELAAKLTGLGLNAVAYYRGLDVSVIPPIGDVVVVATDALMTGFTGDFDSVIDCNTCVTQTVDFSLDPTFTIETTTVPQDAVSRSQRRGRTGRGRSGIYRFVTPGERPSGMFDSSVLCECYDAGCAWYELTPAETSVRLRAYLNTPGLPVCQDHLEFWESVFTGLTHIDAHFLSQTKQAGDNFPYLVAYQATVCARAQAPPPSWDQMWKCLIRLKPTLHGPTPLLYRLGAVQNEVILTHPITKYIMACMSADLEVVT

SMILES	LogS [1]	LogP [2]	CC50 at 48 h [3] [µM]	IC50 ([4]; Hepatitis C virus, Huh-7, 48 h) [µM]	IC50 [4]	inhibition at 50 µM (HCV NS3/4A protease) [%]	SI (selectivity index) [4]
COc1cccc(/C=N/NC(=O)c2cc3ccccc3nc2C)c1O [Compound 5]	−4.05	3.17	> 50	3	3.01 µM	–	–
Oc1ccc2cc(Br)ccc2c1/C=N/c1nc[nH]n1 [Compound 12]	−2.67	3.23	> 50	16.1	–	53	>3.11
O=C1c2ccccc2C(=O)N1/N=C/c1cccc(O)c1O [Compound 10]	−2.5	2.18	> 50	7.07	–	–	>7.07
CCC(C)c1ccc(-c2cc(C(=O)N/N=C/c3cccnc3)c3ccccc3n2)cc1 (stereo not shown) [Compound 7]	−5.53	5.84	11.8	4.14	–	64.3	2.85
COc1ccc(/C=N/NC(=O)c2ccc(O)cc2O)cc1O [Compound 4]	−2.48	2.2	> 50	15.3	–	56.9	>3.27
O=C(NC(C(=O)N/N=C/c1ccc(O)cc1O)c1n[nH]c(=O)c2ccccc12)c1ccccc1 (stereo not shown) [Compound 2]	−3.90	1.95	> 50	11.2	–	77.9	>4.46
O=C(CSc1nnc(CNc2ccccc2)n1-c1ccc(Cl)cc1Cl)N/N=C/c1c2ccccc2cc2ccccc12 [Compound 6]	–	7.08	14.8	5.04	–	48.1	2.94
C=CCc1cccc(/C=N/c2ccc(OC)cc2)c1O [Compound 11]	−4.16	4.43	> 50	< 10	5.1 µM and 5.14 µM	–	–
COc1ccc(-c2cc(C(=O)Nc3ccc(S(=O)(=O)Nc4nccs4)cc3)c3ccccc3n2)c(OC)c1 [Compound 14]	−7.55	5.1	> 50	20.7	–	–	>2.42
NC(=S)N/N=C/c1ccc(O)c(O)c1 [Compound 9]	−1.03	1.53	–	–	–	33.7	–
CCCCC(CC)C(=O)Nc1nnc(Cc2ccc(OC)cc2)s1 (stereo not shown) [Compound 15]	−5.64	4.57	> 50	28.2	–	41.8	>1.77
NC(=S)N/N=C/c1cccc(O)c1O [Compound 8]	−1.89	1.51	1.12	6.23	–	–	0.18
O=C(N/N=C/c1ccc(O)cc1O)c1[nH]nc2c1CCCC2 [Compound 1]	−3.01	0.27	0.46	4.69	–	96.7	0.10
Cc1ccc(O)c(/C=N/NC(=O)C2C(=O)NCC2c2ccccc2)c1 (stereo not shown) [Compound 3]	−3.69	2.75	> 50	13.4	–	–	>3.73
O=C(COC(=O)c1cccc(N2C(=O)C3C4c5ccccc5C(c5ccccc54)C3C2=O)c1)c1ccc(Br)cc1 (stereo not shown) [Compound 16]	−8.04	4.48	> 50	9.42	–	–	>5.31

— paper PMC3856094, “Identification of Novel Small Molecules as Inhibitors of Hepatitis C Virus by Structure-Based Virtual Screening” (International Journal of Molecular Sciences, 2013)
